Laboratory results as given in patent US5795891A, “Acylphenylglycine derivative and preventive and remedy for diseases caused by increased collagenase activity containing said compound as active ingredient” (Kanebo Ltd., priority 1993, dated 1998).
Structures can show the parent of a compound that is named as a salt.

Legend:
collagenase [1] = experiment: Collagenase activity inhibition rate in blood after oral administration (in mice); assay type: in vivo; details: 30 mg/kg p.o.; for Collagenase Inhibition rates in blood after oral administration, After 2 hours: after 2 hours (as printed in head; text says 3 hours)
Description: (§1) Test compounds were suspended in 0.5% CMC and orally administered to three mice per group (the dose of the test compound, 30 mg/kg), and after a certain period of time, the blood was collected in the presence of heparin and ice-cooled. Plasma was obtained by centrifugation of this blood at 10,000 rpm for 5 minutes at 4° C. To 400 μl of this plasma was added to 600 μl of distilled water, and heated at 100° C. for 10 minutes. After cooling, the mixture was centrifuged at 10,000 rpm for 5 minutes and filtered using a micro-volume ultrafiltration unit (Molcut II, Millipore) to provide a sample (A) for use in collagenase activity measurement. Using this sample, collagenase activity inhibition rate in blood was determined by the following method.
(§2) The sample (A) above was mixed with a known amount of collagenase (the collagenase used was prepared by the method described in JP-A-3-103178) dissolved in a buffer for measurement (50 mM Tris-HCl buffer, pH 7.5, containing 0.2M sodium chloride, 5 mM calcium chloride, 0.05% Brij-35 and 0.02% sodium azide,), and collagenase activity A was measured according to the method of Nagai et al. (Japanese Journal of Inflammation, 4, 123 (1984)) using a fluorescein isothiocyanate-labeled type-I collagen as a substrate. […] Inhibition rate was determined from the following equation:
(§3) Inhibition rate (%)=(1-A/B)×100

adjuvant arthritis [2] = experiment: Adjuvant arthritis model: urinary hydroxyproline excretion; assay type: in vivo, male Lewis rats; details: for Urinary hydroxyproline excretion (ratio to creatinine): after day 20, 100 mg/kg at 12-hour intervals, control 94.3 ± 1.8, normal 71.8 ± 2.6
Description: (§4) 8-week old male Lewis rats (Charles River Japan, K.K.) were divided into 4 groups (normal control group, control group, and two test compound groups) of 7 animals each. Each of the rats of the control group and the test compound groups were intra-dermally injected with 0.6 mg of heat-killed M. butyricum in 0.1 ml of liquid paraffin suspension in their right hind paw to induce adjuvant arthritis. The test compounds were suspended in 0.5% CMC, and administered to the rats of the test compound group at a dose of 100 mg/kg per administration immediately after the injection of adjuvant and at 12-hour intervals thereafter over a period of 20 days. The rats of the control group received 0.5% CMC immediately after the injection of adjuvant and at 12-hour intervals thereafter over a period of 20 days. The rats of the normal control group were not injected with adjuvant but only administered 0.5% CMC analogously to the administration of the test compounds.
(§5) After the last administration of the test compounds on day 20, the rats were transferred into metabolic cages, and urine samples were collected overnight without supply of food or water. Urine volume and the amounts of creatinine and hydroxyproline were determined by the following method, and urinary hydroxyproline excretion expressed in the ratio to creatinine. Statistical analysis was made according to the Tukey's method for the superiority of test compound group over the control group. Determination of creatinine was carried out using Creatinine TestWAKO (Wako Junyaku). Hydroxyproline was determined by first hydrolyzing the urine with 6N hydrochloric acid, then isolation on high performance liquid chromatograph equipped with ion-exchange column (Hitachi Gel #2619), reaction with O-phthalaldehyde to form a hydroxyproline derivative, and measurement on a fluorophotometer.

adjuvant arthritis [3] = experiment: Adjuvant arthritis model: erythrocyte sedimentation rates; assay type: in vivo, male Lewis rats; details: 100 mg/kg at 12-hour intervals for 20 days; for effect on increase in erythrocyte sedimentation rates (in words): vs control; for Erythrocyte sedimentation rates: day 21, control 33 ± 2, normal 1 ± 0.1, ** P < 0.01 vs control (Compound D)
Description: as §4
The blood was fully removed on day 21 and used as a sample. Erythrocyte sedimentation measuring apparatus (Matsuyoshi's Erythrocyte Sedimentation rack) was used for the measurement, and statistical analysis was made according to the Dunnett's method for the superiority of the test compound group over the control group.

adjuvant arthritis [4] = experiment: Adjuvant arthritis model: serum calcium concentration; assay type: in vivo, male Lewis rats; details: 100 mg/kg at 12-hour intervals for 20 days; for effect on increase in serum calcium concentration (in words): vs control; for Serum calcium conc.: day 21, control 9.5 ± 0.1, normal 8.6 ± 0.1, ** P < 0.01 vs control (Compound D)
Description: as §4
Measurement was carried out on the same sample as above 2) using Calcium TestWAKO (Wako Junyaku), and statistical analysis was made according to the Dunnett's method for the superiority of the test compound group over the control group.

bone resorption = experiment: Test for inhibition of bone resorption: urine hydroxyproline/creatinine ratio in rats on calcium-deficient food; assay type: in vivo, male Wister rats; details: for effect on increase in urine hydroxyproline/creatinine ratio (in words): 100 mg/kg p.o., vs control; for Urinary hydroxyproline excretion (ratio to creatinine): single 100 mg/kg p.o., urine 16 hours, control 174 ± 7, normal 134 ± 7, * P < 0.05 vs control (Compound D)
Description: Furthermore, an investigation of its suppressive effect was carried out on bone resorption by administering the compound of the present invention to rats kept on a calcium-deficient food and using the urinary hydroxyproline excretion (ratio to creatinine) as an index.
as §5
6-week old male Wister rats (SLC Japan) were kept on a calcium-deficient food (Oriental Yeast, 0.0105-0.012% calcium, 0.62% phosphorus), orally administered 100 mg/kg of compound D or Y in a 0.5% CMC suspension on day 6 and, immediately thereafter, urine was collected for 16 hours under the condition of fasting with free access to water. The urine volume and urinary hydroxyproline and creatinirie content were measured by the method described in Example 3, and the urine hydroxyproline/creatinie ratio was calculated. Statistical analysis was made using the Tukey's method for the superiority of the test compound group over the control group.

collagenase [5] = experiment: Collagenase activity inhibition rate in blood after oral administration (in rats); assay type: in vivo; details: 100 mg/kg p.o.
Description: as §1, §2, §3
The same procedure as Test Example 1 was followed except that mice were replaced with rats (3 rats/group) and the dose of the tested compounds selected to be 100 mg/kg.

adjuvant arthritis [6] = experiment: Adjuvant arthritis model: hind paw volume (swelling of adjuvant-uninjected hind paw); assay type: in vivo, male Lewis rats; details: 100 mg/kg at 12-hour intervals for 20 days; FIG. 1; t-test vs control
Description: as §4
The volume of the hind paw was measured immediately before and on days 3, 7, 10, 14, 17 and 20 after the injection of adjuvant using a foot volume measuring apparatus. Analysis was made using t-test for superiority of the test compound group over the control group.
In the figure, lines n, c, y and d indicate the volume of the hind paw for the following groups, respectively: […]

collagenase [7] = experiment: Activity in the living body / absorbability (general statements); details: in vivo
[8] = set-up: species or system mice; details: mouse, in vivo, 3000 mg/kg

With CNC(=O)C(NC(=O)C(CC(C)C)C(CN1CCOCC1)C(=O)NO)c1ccccc1 [Compound C, [4-(N-hydroxyamino)-2(R)-isobutyl-3-(morpholinomethyl)succinyl]-L-phenylglycine-N-methylamide hydrochloride] the “Collagenase Inhibition rates in blood after oral administration, After 1 hour” value (shortened to “Collagenase Inhibition rates … After 1 hour”) (collagenase [1]) was 75% and the “Collagenase Inhibition rates in blood after oral administration, After 2 hours” value (“Collagenase Inhibition rates … After 2 hours” for short) (collagenase [1]) was 64%.
For CNC(=O)C(NC(=O)C(CC(=O)NO)CC(C)C)c1ccc(C(C)C)cc1 [Compound H, [4-(N-hydroxyamino)-2(R)-isobutylsuccinyl]-L-(p-isopropylphenyl)glycine-N-methylamide], the “Collagenase Inhibition rates … After 1 hour” value (collagenase [1]) was 74% and the “Collagenase Inhibition rates … After 2 hours” value (collagenase [1]) was 63%.
For CNC(=O)C(NC(=O)C(CC(=O)NO)CC(C)C)c1ccc(O)cc1 [Compound B, [4-(N-hydroxyamino)-2(R)-isobutylsuccinyl]-L-(p-hydroxyphenyl)glycine-N-methylamide], the “Collagenase Inhibition rates … After 1 hour” value (collagenase [1]) was 84% and the “Collagenase Inhibition rates … After 2 hours” value (collagenase [1]) was 62%.
For CNC(=O)[C@H](Cc1ccccc1)NC(=O)[C@H](CC(C)C)[C@H](CSc1cccs1)C(=O)NO [Known compound Y, [4-(N-hydroxyamino)-2(R)-isobutyl-3(S)-(2-thienyl)thiomethylsuccinyl]-L-phenylalanine-N-methylamide, reference compound], the “Collagenase Inhibition rates … After 1 hour” value (collagenase [1]) was 14%, the “Collagenase Inhibition rates … After 2 hours” value (collagenase [1]) was 21% and the “Urinary hydroxyproline excretion (ratio to creatinine)” value (adjuvant arthritis [2]) was 107.1 ± 6.5 μg/mg creatinine. For the same molecule, the “effect on increase in erythrocyte sedimentation rates (in words)” value (adjuvant arthritis [3]) was “no such effect was noted”, the Erythrocyte sedimentation rates (adjuvant arthritis [3]) was 30 ± 3 and the “effect on increase in serum calcium concentration (in words)” value (adjuvant arthritis [4]) was “no such effect was noted”. For the same molecule, the Serum calcium conc. (adjuvant arthritis [4]) was 9.6 ± 0.1 mg/dL, the “effect on increase in urine hydroxyproline/creatinine ratio (in words)” value (bone resorption) was “hardly suppressed this increase” and the “Urinary hydroxyproline excretion (ratio to creatinine)” value (bone resorption) was 161 ± 3 μg/mg creatinine.
With CNCC(C(=O)NO)C(CC(C)C)C(=O)NC(C(=O)NC)c1ccccc1 [Compound E, [4-(N-hydroxyamino)-2(R)-isobutyl-3-(methylaminomethyl)succinyl]-L-phenylglycine-N-methylamide] the “Collagenase Inhibition rates … After 1 hour” value (collagenase [1]) was 82% and the “Collagenase Inhibition rates … After 2 hours” value (collagenase [1]) was 61%.
For CNC(=O)C(NC(=O)C(CC(=O)NO)CC(C)C)c1ccc(F)cc1 [Compound G, [4-(N-hydroxyamino)-2(R)-isobutylsuccinyl]-L-(p-fluorophenyl)glycine-N-methylamide], the “Collagenase Inhibition rates … After 1 hour” value (collagenase [1]) was 83% and the “Collagenase Inhibition rates … After 2 hours” value (collagenase [1]) was 64%.
With CCNC(=O)C(NC(=O)C(CC(=O)NO)CC(C)C)c1ccccc1 [Compound F, [4-(N-hydroxyamino)-2(R)-isobutylsuccinyl]-L-phenylglycine-N-ethylamide] the “Collagenase Inhibition rates … After 1 hour” value (collagenase [1]) was 89% and the “Collagenase Inhibition rates … After 2 hours” value (collagenase [1]) was 53%.
For CNC(=O)C(NC(=O)C(CC(=O)NO)CC(C)C)c1ccccc1 [Compound A, [4-(N-hydroxyamino)-2(R)-isobutylsuccinyl]-L-phenylglycine-N-methylamide], the “Collagenase Inhibition rates … After 1 hour” value (collagenase [1]) was 88%, the “Collagenase Inhibition rates … After 2 hours” value (collagenase [1]) was 83% and the “Collagenase Inhibition rates in blood after oral administration, After 1 hr.” value (collagenase [5]) was 100%. The “Collagenase Inhibition rates in blood after oral administration, After 3 hrs.” value (collagenase [5]) was 91% and the “Collagenase Inhibition rates in blood after oral administration, After 6 hrs.” value (collagenase [5]) was 64%.
In the case of CNC(=O)[C@H](Cc1ccc(OC)cc1)NC(=O)[C@@H](CC(=O)NO)CC(C)C [Known compound X, [4-(N-hydroxyamino)-2(R)-isobutylsuccinyl]-L-O-methyltyrosine-N-methylamide, reference compound], the “Collagenase Inhibition rates … After 1 hour” value (collagenase [1]) is reported as 60%, the “Collagenase Inhibition rates … After 2 hours” value (collagenase [1]) is reported as 43% and the “Collagenase Inhibition rates in blood after oral administration, After 1 hr.” value (collagenase [5]) is reported as 45%. The “Collagenase Inhibition rates in blood after oral administration, After 3 hrs.” value (collagenase [5]) was 44% and the “Collagenase Inhibition rates in blood after oral administration, After 6 hrs.” value (collagenase [5]) was 33%.
With CNC(=O)[C@H](Cc1c[nH]c2ccccc12)NC(=O)[C@@H](CC(=O)NO)CC(C)C [Known compound Z, [4-(N-hydroxyamino)-2(R)-isobutylsuccinyl]-L-tryptophan-N-methylamide, reference compound] the “Collagenase Inhibition rates … After 1 hour” value (collagenase [1]) was 58% and the “Collagenase Inhibition rates … After 2 hours” value (collagenase [1]) was 51%.
For CNC(=O)C(NC(=O)C(CC(C)C)C(C)C(=O)NO)c1ccccc1 (single isomer, unassigned) [Compound D], the “swelling (volume increase) of the adjuvant-uninjected hind paw” value (adjuvant arthritis [6]) was “suppressed the swelling (volume increase) of the adjuvant-uninjected hind paw”, the “Collagenase Inhibition rates … After 1 hour” value (collagenase [1]) was 87% and the “Collagenase Inhibition rates … After 2 hours” value (collagenase [1]) was 76%. The “effect on increase in urinary hydroxyproline excretion (in words)” value (adjuvant arthritis [2]; 100 mg/kg at 12-hour intervals for 20 days) was “tended to suppress the increase in urinary hydroxyproline excretion”, the “Urinary hydroxyproline excretion (ratio to creatinine)” value (adjuvant arthritis [2]) was 78.4 ± 6.1 μg/mg creatinine and the “activity in the living body (in words)” value (collagenase [7]) was “exhibits an excellent activity in the living body”. For the same molecule, the “effect on increase in erythrocyte sedimentation rates (in words)” value (adjuvant arthritis [3]) was “significantly suppressed the increase in erythrocyte sedimentation rates”, the Erythrocyte sedimentation rates (adjuvant arthritis [3]) was 20 ± 2 and the “effect on increase in serum calcium concentration (in words)” value (adjuvant arthritis [4]) was “significantly suppressed the increase in serum calcium concentration”. For the same molecule, the Serum calcium conc. (adjuvant arthritis [4]) was 8.9 ± 0.1 mg/dL, the “death after oral administration” value [8] was “no death was observed” and the “effect on increase in urine hydroxyproline/creatinine ratio (in words)” value (bone resorption) was “exhibited a significant suppression from the level of the control group”. The “Urinary hydroxyproline excretion (ratio to creatinine)” value (bone resorption) was 144 ± 5 μg/mg creatinine.
